Experimental data: EPA's ToxRefDB 2

Experiments:
[1] = system: rat; details: Subchronic oral toxicity in rodents, fischer, Feed, dose end: 90 day, group: systemic
[2] = system: mouse; details: Combined chronic toxicity/carcinogenicity; b6c3f1; Oral; Feed; dose end: 24 month; group: systemic; systemic / pathology microscopic / liver / accentuated lobular pattern
[3] = system: dog; details: Chronic toxicity; beagle; Oral; Gavage/Intubation; dose end: 52 week; group: systemic; systemic / in life observation / body weight / body weight gain + systemic / in life observation / clinical signs / emesis + systemic / in …
[4] = system: rat; details: Carcinogenicity, sprague dawley, Injection, Intraperitoneal, dose end: 52 week, group: systemic
[5] = system: rat; details: Subchronic oral toxicity in rodents, sprague dawley, Injection, Intraperitoneal, dose end: 45 day, group: systemic
[6] = system: mouse; details: Carcinogenicity, b6c3f1, Injection, Intraperitoneal, dose end: 52 week, group: systemic
[7] = system: rat; details: Combined chronic toxicity/carcinogenicity; sprague dawley; Oral; Feed; dose end: 24 month; group: systemic; systemic / organ weight / liver / relative to body weight + systemic / pathology microscopic / liver / hypertrophy + systemic / pathology …
[8] = system: mouse; details: Carcinogenicity, b6c3f1, Oral, Feed, dose end: 24 month, group: systemic
[9] = system: dog; details: Chronic toxicity; beagle; Oral; Feed; dose end: 52 week; group: systemic; systemic / clinical chemistry / alkaline phosphatase (alp/alk) / alkaline phosphatase (alp/alk) + systemic / organ weight / liver / absolute…
[10] = system: rat; details: Multigenerational reproductive toxicity study, sprague dawley, Oral, Feed, dose end: 2 generation
[11] = system: rat; details: Subchronic oral toxicity in rodents, sprague dawley, Feed, dose end: 13 week, group: systemic, systemic / clinical chemistry / cholesterol / cholesterol + systemic / organ weight / liver / relative to body weight + systemic / pathology…
[12] = systemic / organ weight / liver / relative to body weight + systemic / organ weight / kidney / relative to body weight
[13] = systemic / in life observation / mortality / mortality + systemic / pathology microscopic / peritoneum / sarcoma
[14] = systemic / in life observation / mortality / mortality + systemic / pathology microscopic / peritoneum / sarcoma + systemic / in life …
[15] = systemic / in life observation / clinical signs / distended abdomens + systemic / in life observation / mortality / mortality + systemic / …
[16] = systemic / in life observation / mortality / mortality
[17] = systemic / pathology microscopic / peritoneum / sarcoma + systemic / in life observation / body weight / body weight + systemic / in life …
[18] = systemic / pathology gross / liver / enlarged + systemic / pathology gross / liver / mass + systemic / pathology gross / liver / nodule(s…
[19] = group: offspring, systemic / in life observation / body weight / offspring (pup) weight
[20] = group: parental, systemic / in life observation / body weight / body weight + systemic / in life observation / food consumption / food consumption + systemic…

## Oc1ccccc1-c1ccccc1 [2-Phenylphenol]
[1]; systemic / in life observation / body weight / body weight + systemic / in life observation / body weight / body weight gain
  LOAEL: 763 mg/kg/day
[1]; systemic / in life observation / body weight / body weight + systemic / in life observation / body weight / body weight gain + systemic / in…
  NOAEL: 377 mg/kg/day
[1]; [12]
  LEL: 377 mg/kg/day
  NEL: < 377 mg/kg/day
[2]
  LEL: 250 mg/kg/day
  LOAEL: 250 mg/kg/day
  NEL: < 250 mg/kg/day
  NOAEL: < 250 mg/kg/day
[3]
  LEL: 300 mg/kg/day
  LOAEL: 300 mg/kg/day
  NEL: 100 mg/kg/day
  NOAEL: 100 mg/kg/day

## CC(COc1ccccc1)N(CCCl)Cc1ccccc1.Cl (stereo not drawn) [Phenoxybenzamine hydrochloride]
[4]; [13]
  LEL: 5 mg/kg/day
  NEL: < 5 mg/kg/day
[4]; [14]
  LOAEL: > 10 mg/kg/day
  NOAEL: ≥ 10 mg/kg/day
[5]; systemic / in life observation / clinical signs / distended abdomens
  LEL: 15 mg/kg/day
[5]; [15]
  LOAEL: > 30 mg/kg/day
  NEL: 7.5 mg/kg/day
  NOAEL: ≥ 30 mg/kg/day
[6]; [16]
  LEL: 12.5 mg/kg/day
  NEL: < 12.5 mg/kg/day
[6]; [17]
  LOAEL: > 25 mg/kg/day
  NOAEL: ≥ 25 mg/kg/day

## C#CC(C)(C)NC(=O)c1cc(Cl)cc(Cl)c1 [Propyzamide]
[7]
  LEL: 48.8 mg/kg/day
  LOAEL: 48.8 mg/kg/day
  NEL: 10.1 mg/kg/day
  NOAEL: 10.1 mg/kg/day
[8]; systemic / pathology gross / liver / enlarged + systemic / pathology gross / liver / mass + systemic / pathology gross / liver / nodule(s)
  LOAEL: 75 mg/kg/day
[8]; [18]
  LEL: 75 mg/kg/day
  NEL: 15 mg/kg/day
  NOAEL: 15 mg/kg/day
[9]
  LEL: 33.1 mg/kg/day
  LOAEL: 33.1 mg/kg/day
  NEL: 11.9 mg/kg/day
  NOAEL: 11.9 mg/kg/day
[10]; [19]
  LEL: 114 mg/kg/day
  LOAEL: 114 mg/kg/day
  NEL: 15.4 mg/kg/day
  NOAEL: 15.4 mg/kg/day
[10]; [20]
  LEL: 114 mg/kg/day
  LOAEL: 114 mg/kg/day
  NEL: 15.4 mg/kg/day
  NOAEL: 15.4 mg/kg/day
[11]
  LEL: 60 mg/kg/day
  LOAEL: 60 mg/kg/day
  NEL: 12.3 mg/kg/day
  NOAEL: 12.3 mg/kg/day
